Laboratory results published in publication PMC11822212, “High-throughput screening identifies Aurora kinase B as a critical therapeutic target for Merkel cell carcinoma” (Nature Communications, 2025).
Structures can show the parent of a compound that is named as a salt.

Legend:
[1] = tested on: HEK293T cells; experiment: qHTS cell viability (CellTiter-Glo, 72 h; primary screen), control cell line; format: cell-based, human
[2] = tested on: MCC cell lines (WAGA, MKL-1, MKL-2, MCC13, MCC26, UISO); experiment: qHTS cell viability, all six MCC cell lines as a group (mean AUC, MCC.avg); format: cell-based, human; settings: mean AUC of six MCC cell lines
[3] = tested on: NIH-3T3 cells; experiment: qHTS cell viability (CellTiter-Glo, 72 h; primary screen), control cell line; format: cell-based, mouse
[4] = tested on: CRL-7250 cells; experiment: as above; format: cell-based
[5] = tested on: WAGA cells (VP-MCC); experiment: qHTS cell viability (CellTiter-Glo, 72 h; primary and follow-up small molecule screen); format: cell-based, human
[6] = tested on: UISO cells (VN-MCC); experiment: as above; format: cell-based, human
[7] = tested on: control cell lines (HACAT, HEK293T, CRL-7250, NIH-3T3); experiment: qHTS cell viability, control cell lines as a group (mean AUC, Control.avg); format: cell-based; settings: mean AUC of control cell lines
[8] = tested on: MKL-2 cells (VP-MCC); experiment: qHTS cell viability (CellTiter-Glo, 72 h; primary and follow-up small molecule screen); format: cell-based, human
[9] = tested on: MCC26 cells (VN-MCC); experiment: as above; format: cell-based, human
[10] = tested on: HACAT cells; experiment: qHTS cell viability (CellTiter-Glo, 72 h; primary screen), control cell line; format: cell-based, human
[11] = tested on: VN-MCC cell lines (MCC13, MCC26, UISO); experiment: qHTS cell viability, VN-MCC cell lines as a group (mean AUC, VN.MCC.avg); format: cell-based, human; settings: for VN-MCC_Avg_AUC: mean AUC of VN-MCC cell lines
[12] = tested on: MCC13 cells (VN-MCC); experiment: qHTS cell viability (CellTiter-Glo, 72 h; primary and follow-up small molecule screen); format: cell-based, human
[13] = tested on: VP-MCC cell lines (WAGA, MKL-1, MKL-2); experiment: qHTS cell viability, VP-MCC cell lines as a group (mean AUC, VP.MCC.avg); format: cell-based, human; settings: for VP-MCC_Avg_AUC: mean AUC of VP-MCC cell lines
[14] = tested on: MKL-1 cells (VP-MCC); experiment: qHTS cell viability (CellTiter-Glo, 72 h; primary and follow-up small molecule screen); format: cell-based, human
[15] = tested on: six MCC cell lines and four control cell lines; experiment: qHTS cell viability, all 10 cell lines screened; format: cell-based
[16] = MIPE library, 11-point DRC, control cell line, sheet S2E
[17] = MIPE library, 11-point DRC, sheet S2E
[18] = NPC library, qHTS dose-response AUC, HEK293T control
[19] = NPC library, qHTS dose-response AUC, NIH3T3 control
[20] = NPC library, qHTS dose-response AUC, CRL7250 control
[21] = NPC library, qHTS dose-response AUC, WAGA
[22] = NPC library, qHTS dose-response AUC, UISO
[23] = NPC library, qHTS dose-response AUC, MKL2
[24] = NPC library, qHTS dose-response AUC, MCC26
[25] = NPC library, qHTS dose-response AUC, HACAT control
[26] = NPC library, therapeutic window: Control avg AUC minus VN-MCC avg AUC
[27] = NPC library, qHTS dose-response AUC, MCC13
[28] = NPC library, therapeutic window: Control avg AUC minus VP-MCC avg AUC
[29] = NPC library, qHTS dose-response AUC, MKL1
[30] = NPC library, therapeutic window: Control avg AUC minus MCC avg AUC

SMILES: CC(=O)O[C@]1(C(C)=O)CC[C@H]2[C@@H]3C=C(C)C4=CC(=O)CC[C@]4(C)[C@H]3CC[C@@]21C [Megestrol acetate]
- HEK293T_AUC [1, 16]: 472.9
- HEK293T_AUC ([1]; area under the dose-response curve, HEK293T control cells, AUC<450 = reduced viability): 457.911
- MCC_Avg_AUC ([2]; MIPE library, sheet S2E): 424.384
- NIH3T3_AUC [3, 16]: 472.047
- NIH3T3_AUC ([3]; area under the dose-response curve, NIH3T3 control cells, AUC<450 = reduced viability): 478.678
- CRL7250_AUC [4, 16]: 475.825
- CRL7250_AUC ([4]; area under the dose-response curve, CRL7250 control cells, AUC<450 = reduced viability): 475.174
- WAGA_AUC [5, 17]: 348.793
- WAGA_AUC ([5]; area under the dose-response curve, WAGA cells, AUC<450 = reduced viability): 442.363
- Area under the dose-response curve (AUC) WAGA Replicate 1 ([5]; follow-up screen, WAGA, replicate 1): 536.2
- Area under the dose-response curve (AUC) WAGA Replicate 2 ([5]; follow-up screen, WAGA, replicate 2): 483.3
- Area under the dose-response curve (AUC) WAGA Replicate 3 ([5]; follow-up screen, WAGA, replicate 3): 478.6
- UISO_AUC [6, 17]: 463.276
- UISO_AUC ([6]; area under the dose-response curve, UISO cells, AUC<450 = reduced viability): 481.624
- Area under the dose-response curve (AUC) UISO Replicate 1 ([6]; follow-up screen, UISO, replicate 1): 487.9
- Area under the dose-response curve (AUC) UISO Replicate 2 ([6]; follow-up screen, UISO, replicate 2): 467.2
- Area under the dose-response curve (AUC) UISO Replicate 3 ([6]; follow-up screen, UISO, replicate 3): 452.8
- Control_Avg_AUC ([7]; MIPE library, sheet S2E): 463.906
- MKL2_AUC [8, 17]: 396.638
- MKL2_AUC ([8]; area under the dose-response curve, MKL-2 cells, AUC<450 = reduced viability): 447.482
- Area under the dose-response curve (AUC) MKL-2 Replicate 1 ([8]; follow-up screen, MKL-2, replicate 1): 460.3
- Area under the dose-response curve (AUC) MKL-2 Replicate 2 ([8]; follow-up screen, MKL-2, replicate 2): 492.7
- Area under the dose-response curve (AUC) MKL-2 Replicate 3 ([8]; follow-up screen, MKL-2, replicate 3): 490.0
- MCC26_AUC [9, 17]: 477.94
- MCC26_AUC ([9]; area under the dose-response curve, MCC26 cells, AUC<450 = reduced viability): 486.411
- Area under the dose-response curve (AUC) MCC26 Replicate 1 ([9]; follow-up screen, MCC26, replicate 1): 464.5
- Area under the dose-response curve (AUC) MCC26 Replicate 2 ([9]; follow-up screen, MCC26, replicate 2): 445.6
- Area under the dose-response curve (AUC) MCC26 Replicate 3 ([9]; follow-up screen, MCC26, replicate 3): 484.7
- HACAT_AUC [10, 16]: 434.851
- HACAT_AUC ([10]; area under the dose-response curve, HACAT control cells, AUC<450 = reduced viability): 455.962
- Control-VN-MCC ([11]; MIPE library, Control AUC minus VN-MCC AUC (therapeutic window), sheet S2E): -9.613
- VN-MCC_Avg_AUC ([11]; MIPE library, sheet S2E): 473.519
- MCC13_AUC [12, 17]: 479.341
- MCC13_AUC ([12]; area under the dose-response curve, MCC13 cells, AUC<450 = reduced viability): 479.661
- Area under the dose-response curve (AUC) MCC13 Replicate 1 ([12]; follow-up screen, MCC13, replicate 1): 522.1
- Area under the dose-response curve (AUC) MCC13 Replicate 2 ([12]; follow-up screen, MCC13, replicate 2): 498.9
- Area under the dose-response curve (AUC) MCC13 Replicate 3 ([12]; follow-up screen, MCC13, replicate 3): 453.4
- Control-VP-MCC ([13]; MIPE library, Control AUC minus VP-MCC AUC (therapeutic window), sheet S2E): 88.658
- VP-MCC_Avg_AUC ([13]; MIPE library, sheet S2E): 375.248
- MKL1_AUC [14, 17]: 380.312
- MKL1_AUC ([14]; area under the dose-response curve, MKL-1 cells, AUC<450 = reduced viability): 437.052
- Area under the dose-response curve (AUC) MKL-1 Replicate 1 ([14]; follow-up screen, MKL-1, replicate 1): 482.4
- Area under the dose-response curve (AUC) MKL-1 Replicate 2 ([14]; follow-up screen, MKL-1, replicate 2): 475.6
- Area under the dose-response curve (AUC) MKL-1 Replicate 3 ([14]; follow-up screen, MKL-1, replicate 3): 473.0
- Control-MCC ([15]; MIPE library, Control AUC minus MCC AUC (therapeutic window), sheet S2E): 39.5225

SMILES: CCCCOc1ccc(C(=O)CCN2CCCCC2)cc1 [Dyclonine hydrochloride]
- HEK293T_AUC [1, 18]: 441.492
- MCC_Avg_AUC ([2]; NPC library): 443.147
- NIH3T3_AUC [3, 19]: 489.536
- CRL7250_AUC [4, 20]: 454.097
- WAGA_AUC [5, 21]: 405.649
- UISO_AUC [6, 22]: 466.874
- Control_Avg_AUC ([7]; NPC library): 461.654
- MKL2_AUC [8, 23]: 401.71
- MCC26_AUC [9, 24]: 466.065
- HACAT_AUC [10, 25]: 461.491
- VN-MCC_Avg_AUC ([11]; NPC library): 475.619
- Control-VN-MCC [11, 26]: -13.9648
- MCC13_AUC [12, 27]: 493.918
- VP-MCC_Avg_AUC ([13]; NPC library): 410.674
- Control-VP-MCC [13, 28]: 50.9798
- MKL1_AUC [14, 29]: 424.663
- Control-MCC [15, 30]: 18.5075

SMILES: CNCc1ccccc1.Cl [N-Methylbenzylamine hydrochloride]
- HEK293T_AUC [1, 18]: 408.972
- MCC_Avg_AUC ([2]; NPC library): 429.112
- NIH3T3_AUC [3, 19]: 497.435
- CRL7250_AUC [4, 20]: 502.537
- WAGA_AUC [5, 21]: 372.649
- UISO_AUC [6, 22]: 548.944
- Control_Avg_AUC ([7]; NPC library): 471.352
- MKL2_AUC [8, 23]: 343.012
- MCC26_AUC [9, 24]: 480.435
- HACAT_AUC [10, 25]: 476.463
- VN-MCC_Avg_AUC ([11]; NPC library): 489.399
- Control-VN-MCC [11, 26]: -18.0472
- MCC13_AUC [12, 27]: 438.819
- VP-MCC_Avg_AUC ([13]; NPC library): 368.825
- Control-VP-MCC [13, 28]: 102.527
- MKL1_AUC [14, 29]: 390.814
- Control-MCC [15, 30]: 42.2399
